Laboratory results reported in patent EP0664802B1, “N-ARYLHETEROARYLALKYL 1-PHENYL-IMIDAZOL-2-ONE COMPOUNDS FOR TREATMENT OF CIRCULATORY DISORDERS” (G.D. SEARLE & CO., priority 1992, dated 1994).
Several values for one entry are separate records, joined by “and”; a condition that tells them apart may be missing. Identical values can stand only once.

Legend:
pressor response to AII = test: Assay C: In Vivo Intragastric Pressor Assay Response for AII antagonists; set-up: species or system Sprague-Dawley rats; settings: Dose: 3 mg/kg (i.g.); for Assay C Duration: AII challenges up to 180 minutes after gavage; for Assay C Inhibition (%): inhibition of pressor response to 30 ng/kg AII bolus, conscious rats
Experimental: Assay C: In Vivo Intragastric Pressor Assay Response for All Antagonists
Male Sprague-Dawley rats weighing 225-300 grams were anesthetized with methohexital (30 mg/kg, i.p.) and catheters were implanted into the femoral artery and vein. The catheters were tunneled subcutaneously to exit dorsally, posterior to the head and between the scapulae. The catheters were filled with heparin (1000 units/ml of saline). The rats were returned to their cage and allowed regular rat chow and water ad libitum. After full recovery from surgery (3-4 days), rats were placed in Lucite holders and the arterial line was connected to a pressure transducer. Arterial pressure was recorded on a Gould polygraph (mmHg). Angiotensin II was administered as a 30 ng/kg bolus via the venous catheter delivered in a 50 µl volume with a 0.2 ml saline flush. The pressor response in mm Hg was measured by the difference from pre-injection arterial pressure to the maximum pressure achieved. The AII injection was repeated every 10 minutes until three consecutive injections yielded responses within 4 mmHg of each other. These three responses were then averaged and represented the control response to AII. The test compound was suspended in 0.5% methylcellulose in water and was administered by gavage. The volume administered was 2 ml/kg body weight. The standard dose was 3 mg/kg. Angiotensin II bolus injections were given at 30, 45, 60, 75, 120, 150, and 180 minutes after gavage. The pressor response to AII was measured at each time point. The rats were then returned to their cage for future testing. A minimum of 3 days was allowed between tests. Percent inhibition was calculated for each time point following gavage by the following formula: [(Control Response - Response at time point)/Control Response] X 100 [formula] .

rabbit aortic rings = test: Assay B: In Vitro Vascular Smooth Muscle Response for AII (antagonist activity, isometric force); format: cell-based; settings: antagonist at 10^-5 M, 5 min before AII challenge; Schild; aorta rings from two rabbits (two values per cell)
Experimental: Assay B: In Vitro Vascular Smooth Muscle-Response for AII
The compounds of the invention were tested for antagonist activity in rabbit aortic rings. Male New Zealand white rabbits (2-2.5 kg) were sacrificed using an overdose of pentobarbital and exsanguinated via the carotid arteries. The thoracic aorta was removed, cleaned of adherent fat and connective tissue and then cut into 3-mm ring segments. The endothelium was removed from the rings by gently sliding a rolled-up piece of filter paper into the vessel lumen. The rings were then mounted in a water-jacketed tissue bath, maintained at 37°C, between moveable and fixed ends of a stainless steel wire with the moveable end attached to an FT03 Grass transducer coupled to a Model 7D Grass Polygraph for recording isometric force responses. The bath was filled with 20 ml of oxygenated (95% oxygen/5% carbon dioxide) Krebs solution of the following composition (mM): 130 NaCl, 15 NaHC03, 15 KCl, 1.2 NaH2P04, 1.2 MgS04, 2.5 CaC12, and 11.4 glucose. The preparations were equilibrated for one hour before approximately one gram of passive tension was placed on the rings. Angiotensin II concentration-response curves were then recorded (3 X 10^-10 to 1 x 10^-5 M). Each concentration of AII was allowed to elicit its maximal contraction, and then AII was washed out repeatedly for 30 minutes before rechallenging with a higher concentration of AII. Aorta rings were exposed to the test antagonist at 10^-5 M for 5 minutes before challenging with AII. Adjacent segments of the same aorta ring were used for all concentration-response curves in the presence or absence of the test antagonist. The effectiveness of the test compound was expressed in terms of pA2 values and were calculated according to H.O. Schild [Br. J. Pharmacol. Chemother., 2,189-206 (1947)]. The pA2 value is […] of the antagonist which increases the EC50 value for AII by a factor of two. Each test antagonist was evaluated in aorta rings from two rabbits.

Row | SMILES | Assay C Duration (pressor response to AII) [min] | Assay C Inhibition (%) (pressor response to AII) | Assay B pA2 (rabbit aortic rings)
1 | CCCCc1cn(-c2ccccc2CC)c(=O)n1Cc1ccc(-c2ccccc2-c2nnn[nH]2)nc1 [Example 1, 1-(2-ethylphenyl)-4-butyl-1,3-dihydro-3-[[6-[2-(1H-tetrazol-5-yl)phenyl]-3-pyridinyl]methyl]-2H-imidazol-2-one] | >180 | 80 | –
2 | CCCCc1cn(-c2ccccc2C(C)(C)C)c(=O)n1Cc1ccc(-c2ccccc2-c2nnn[nH]2)nc1 [Example 2, 1-(2-tertbutylphenyl)-4-butyl-1,3-dihydro-3-[[6-[2-(1H-tetrazol-5-yl)phenyl]-3-pyridinyl]methyl]-2H-imidazol-2-one] | >180 | 40 | –
3 | CCCCc1cn(-c2c(OC)cccc2OC)c(=O)n1Cc1ccc(-c2ccccc2-c2nnn[nH]2)nc1 [Example 3, 1-(2,6-dimethoxyphenyl)-4-butyl-1,3-dihydro-3-[[6-[2-(1H-tetrazol-5-yl)phenyl]-3-pyridinyl]methyl]-2H-imidazol-2-one] | >180 | 25 | –
4 | CCCCc1cn(-c2c(C)cccc2Cl)c(=O)n1Cc1ccc(-c2ccccc2-c2nnn[nH]2)nc1 [Example 4, 1-(2-chloro-6-methylphenyl)-4-butyl-1,3-dihydro-3-[[6-[2-(1H-tetrazol-5-yl)phenyl]-3-pyridinyl]methyl]-2H-imidazol-2-one] | >180 | 75 | –
5 | CCCCc1cn(-c2c(C)cc(C)cc2C)c(=O)n1Cc1ccc(-c2ccccc2-c2nnn[nH]2)nc1 [Example 5, 1-(2,4,6-trimethylphenyl)-4-butyl-1,3-dihydro-3-[[6-[2-(1H-tetrazol-5-yl)phenyl]-3-pyridinyl]methyl]-2H-imidazol-2-one] | >180 | 70 | 8.59 and 8.89
6 | CCCCc1cn(-c2c(C)cc(C(C)(C)C)cc2C)c(=O)n1Cc1ccc(-c2ccccc2-c2nnn[nH]2)nc1 [Example 6, 1-(2,6-dimethyl-4-tertbutylphenyl)-4-butyl-1,3-dihydro-3-[[6-[2-(1H-tetrazol-5-yl)phenyl]-3-pyridinyl]methyl]-2H-imidazol-2-one] | – | – | 8.51 and 8.78
7 | CCCCc1cn(-c2c(CC)cccc2CC)c(=O)n1Cc1ccc(-c2ccccc2-c2nnn[nH]2)nc1 [Example 7, 1-(2,6-diethylphenyl)-4-butyl-1,3-dihydro-3-[[6-[2-(1H-tetrazol-5-yl)phenyl]-3-pyridinyl]methyl]-2H-imidazol-2-one] | – | 20 | –
8 | CCCCc1cn(-c2c(C(C)C)cccc2C(C)C)c(=O)n1Cc1ccc(-c2ccccc2-c2nnn[nH]2)nc1 [Example 8, 1-(2,6-diisopropylphenyl)-4-butyl-1,3-dihydro-3-[[6-[2-(1H-tetrazol-5-yl)phenyl]-3-pyridinyl]methyl]-2H-imidazol-2-one] | – | – | 7.14 and 7.07
